Laboratory results as given in patent US20120329813A1 (Cardoz AB, priority 2009, published 2012).
Values belong to the compound of their own block, whether it stands above or below them.

How the values were obtained:
[1] = system: CRP; details: subjects with prediabetes and elevated serum TNF-alpha; cited from earlier work
[2] = human, in vivo, po
Protocol: During days 2-4, each subject received one dose in the morning and one dose in the evening with a time interval of 12 hours between the daily doses. […] Other than the occasional use of nasal decongestants or paracetamol, the subjects were instructed not to use other drugs, alcohol or nicotine during the study.

[3] = system: plasma C-reactive protein (CRP); test: Plasma CRP (hsCRP assay) in a patient with coronary artery disease treated with pemirolast potassium for two weeks; assay type: in vivo, human; details: CAD patient, 30 mg b.i.d., 6.4 mg/L on Day 1 before the first dose
Protocol: The study was approved by the Swedish Medical Products Agency, and performed by Berzelius Clinical Research Centre AB in Linköping, Sweden (the clinic).
Plasma CRP was determined with the high sensitivity CRP (hsCRP) assay described in Example 1 above.
(§1) The first dose (3×10 mg) was administered in the morning of Day 1 at the clinic, the second dose in the evening of Day 1 at home, and then 3×10 mg b.i.d. at home during Days 2 to 14. The last dose was administered in the evening of Day 14 at home.
(§2) The CAD patient was a person with a body height of 188 cm and a body weight of 103 kg. They were on treatment with enalapril 20 mg QD (once daily) for hypertension since 2006. After a myocardial infarction in 2009, they were started on treatment with simvastatin 40 mg QD, acetylsalicylic acid 75 mg QD, and metoprolol 100 mg QD (all three drugs started in June 2009). Since January 2010, the patient was also treated with felodipin 5 mg QD. During the two week treatment with pemirolast, the patient continued to take these medications.

[4] = Safety in the CAD patient during the two week pemirolast treatment; assay type: in vivo, human; details: 30 mg b.i.d. for two weeks
Protocol: as §1, §2

[5] = system: plasma CRP; test: Plasma CRP (high sensitivity CRP assay) in healthy volunteers treated perorally with pemirolast potassium for five days; assay type: in vivo, human
Protocol: (§3) Plasma CRP was determined with a high sensitivity CRP assay (based on Near Infrared Particle Immunoassay rate methodology) on a UniCel DxC 800 instrument from Beckman Coulter (analysis performed at the Department of Clinical Chemistry, Karolinska University Laboratory, Stockholm, Sweden). The degree of mast cell activity was determined by measuring plasma tryptase with the ImmunoCAP Tryptase Fluoro-Immuno-Enzymatic Assay on a ImmunoCAP 250 instrument from Phadia (analysis performed at Clinical Immunology and Transfusion Medicine, Karolinska University Laboratory, Stockholm, Sweden).

[6] = system: plasma tryptase; test: Plasma tryptase (ImmunoCAP Tryptase Fluoro-Immuno-Enzymatic Assay) in healthy volunteers before and after pemirolast treatment; assay type: in vivo, human
Protocol: as §3

[7] = apparently healthy subjects with normal or low LDL cholesterol and elevated CRP; 1.9 years; cited from earlier work
[8] = system: hsCRP; details: patients with chronic obstructive pulmonary disease; cited from earlier work

Compound: CN1CCC(=C2c3ccccc3CC(=O)c3sccc32)CC1 [ketotifen]
effect on CRP [1]: not to reduce CRP

AUC and Cmax versus dose [2]: increased in a dose-proportional manner
effect on tryptase levels ([6]; four subjects with SLGI, plasma CRP >0.9 mg/L): did not reduce
Compound: Cc1cccn2c(=O)c(-c3nnn[nH]3)cnc12 [pemirolast]
CRP level ([3]; Day 8): 4.0 mg/L
CRP level ([3]; morning of Day 15): 1.8 mg/L
adverse events [4]: did not report any adverse events
effect on CRP levels (FIG. 1) ([5]; four subjects with baseline CRP >0.9 mg/L, 10, 30 or 50 mg day 1-5): markedly reduced
mean CRP level at the end of the pemirolast treatment ([5]; four subjects with baseline plasma CRP >0.9 mg/L, 10, 30 or 50 mg per os b.i.d. day 1-5, 1.8 mg/L before treatment, p<0.05): 1.1 mg/L
mean CRP level at the end of the pemirolast treatment ([5]; remaining subjects with baseline CRP below 0.9 mg/L (n=13), 0.32 mg/L before treatment): 0.38 mg/L
mean plasma tryptase level ([6]; four subjects with plasma CRP >0.9 mg/L, both before and after pemirolast treatment): 4.8 µg/L

Compound: CC(C)c1nc(N(C)S(C)(=O)=O)nc(-c2ccc(F)cc2)c1/C=C/[C@@H](O)C[C@@H](O)CC(=O)O [rosuvastatin]
effect on cardiovascular morbidity/mortality [7]: significantly reduces

Compound: Cn1c(=O)c2[nH]cnc2n(C)c1=O [theophylline]
effect on hsCRP [8]: not to reduce hsCRP
